Reference: publication PMC5638611, “Effects of glutamate and ivermectin on single glutamate-gated chloride channels of the parasitic nematode H. contortus” (PLoS Pathogens, 2017)

Assays:
[1] = biological target: T1, glutamate-gated chloride channel receptor α (avr-14b) (GluClR), homomeric, G36'A mutant (Haemonchus contortus, UniProt O46124, G329A); test: outside-out patch single-channel recording; direct activation by […] IVM; assay type: cell-based
T1 construct: gene gbr-2; homomeric avr-14b subunit expressed in HEK AD293 cells
T1 sequence (O46124 31-438 G329A): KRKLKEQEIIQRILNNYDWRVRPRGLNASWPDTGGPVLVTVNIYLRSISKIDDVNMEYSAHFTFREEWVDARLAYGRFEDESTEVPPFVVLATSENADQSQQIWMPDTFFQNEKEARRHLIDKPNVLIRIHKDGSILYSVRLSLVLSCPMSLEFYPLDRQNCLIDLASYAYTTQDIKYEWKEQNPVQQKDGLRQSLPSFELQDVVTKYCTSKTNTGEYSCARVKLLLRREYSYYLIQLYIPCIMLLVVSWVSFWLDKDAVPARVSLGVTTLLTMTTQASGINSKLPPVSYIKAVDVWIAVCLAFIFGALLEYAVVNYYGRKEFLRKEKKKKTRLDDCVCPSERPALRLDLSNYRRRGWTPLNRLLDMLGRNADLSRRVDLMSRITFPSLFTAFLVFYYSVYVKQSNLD

[2] = biological target: T2, glutamate-gated chloride channel receptor α (avr-14b) (GluClR), homomeric (Haemonchus contortus, UniProt O46124); test: outside-out patch single-channel recording; direct activation by […] IVM, and potentiation of […] glutamate; assay type: cell-based
T2 construct: gene gbr-2; homomeric avr-14b subunit expressed in HEK AD293 cells
T2 sequence (O46124 entry or part of it): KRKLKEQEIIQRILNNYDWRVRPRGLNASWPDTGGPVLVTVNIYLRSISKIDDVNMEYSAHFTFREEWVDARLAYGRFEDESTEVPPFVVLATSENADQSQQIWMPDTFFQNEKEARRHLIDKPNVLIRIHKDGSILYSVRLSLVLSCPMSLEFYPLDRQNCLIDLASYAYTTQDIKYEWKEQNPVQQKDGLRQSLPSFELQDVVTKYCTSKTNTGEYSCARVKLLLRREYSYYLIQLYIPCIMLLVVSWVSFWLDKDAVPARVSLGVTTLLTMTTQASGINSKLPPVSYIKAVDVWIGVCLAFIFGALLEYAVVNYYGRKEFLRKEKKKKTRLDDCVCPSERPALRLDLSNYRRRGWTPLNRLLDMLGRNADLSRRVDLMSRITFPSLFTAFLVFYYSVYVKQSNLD

## CC[C@H](C)[C@H]1O[C@]2(CC[C@@H]1C)C[C@@H]1C[C@@H](C/C=C(\C)[C@@H](O[C@H]3C[C@H](OC)[C@@H](O[C@H]4C[C@H](OC)[C@@H](O)[C@H](C)O4)[C@H](C)O3)[C@@H](C)/C=C/C=C3\CO[C@@H]4[C@H](O)C(C)=C[C@@H](C(=O)O1)[C@]34O)O2 [Ivermectin]
[1]
  outside-out patch single-channel recording; direct activation by 5 nM IVM: 5 nM
[2]
  outside-out patch single-channel recording; direct activation by 5 nM IVM, and p: 5 nM
